Measured values as given in ChEMBL document CHEMBL3044790, “Evaluation of antiasthmatic activity of 7,8,9,10-tetrahydroazepino[2,1-b]quinazolin-12(6H)-one in combination with ambroxol in Guinea pigs” (2012).
Calls of active or inactive are those of the source. The calls are words filed in the database; no cut-off is given here.

Columns and labels:
[1] = system: Cavia porcellus; test: Antiasthmatic activity in Cavia porcellus Hartley (guinea pig) ovalbumin-induced hyperresponsive model assessed as cough latency at 20 mg/kg, ip qd administered for 7 days challenged 30 min post last dose on day 7 (reference value: 4.75 +/- 0.86 min); type: functional; conditions: route intraperitoneal
[2] = system: Cavia porcellus; test: Antiasthmatic activity in Cavia porcellus Hartley (guinea pig) ovalbumin-induced hyperresponsive model assessed as increase in GSH level in per gram of lung tissue at 20 mg/kg, ip qd administered for 7 days challenged 30 min post last dose on day 7 (reference value: 15.175 +/- 1.809 umol/g); type: functional; conditions: route intraperitoneal
[3] = system: Cavia porcellus; test: Antiasthmatic activity in Cavia porcellus Hartley (guinea pig) ovalbumin-induced hyperresponsive model assessed as reduction in eosinophil count in BAL at 20 mg/kg, ip qd administered for 7 days challenged 30 min post last dose on day 7; type: functional, organism-based; parameters: dose 20 mg/kg
[4] = system: Cavia porcellus; test: Antiasthmatic activity in Cavia porcellus Hartley (guinea pig) ovalbumin-induced hyperresponsive model assessed as reduction in total lymphocyte count in BAL at 20 mg/kg, ip qd administered for 7 days challenged 30 min post last dose on day 7; type: functional, organism-based; parameters: dose 20 mg/kg
[5] = system: Cavia porcellus; test: Antiasthmatic activity in Cavia porcellus Hartley (guinea pig) ovalbumin-induced hyperresponsive model assessed as reduction in TBARS level in per gram of lung tissue at 20 mg/kg, ip qd administered for 7 days challenged 30 min post last dose on day 7 (reference value: 0.291 +/- 0.039 nmol/g); type: functional; conditions: route intraperitoneal
[6] = system: Cavia porcellus; test: (§1) Antiasthmatic activity in Cavia porcellus Hartley (guinea pig) ovalbumin-induced hyperresponsive model assessed as decrease in nitrate/nitrite level in per gram of lung tissue at 20 mg/kg, ip qd administered for 7 days challenged 30 min post last dose on day 7 by griess assay (reference value: 195.55 +/- 8.34 umol/g); type: functional; conditions: route intraperitoneal
[7] = system: Cavia porcellus; test: Antiasthmatic activity in Cavia porcellus Hartley (guinea pig) ovalbumin-induced hyperresponsive model assessed as reduction in TBARS level in BAL at 20 mg/kg, ip qd administered for 7 days challenged 30 min post last dose on day 7 (reference value: 0.471 +/- 0.08 nmol/ml); type: functional; conditions: route intraperitoneal
[8] = system: Cavia porcellus; test: Antiasthmatic activity in Cavia porcellus Hartley (guinea pig) ovalbumin-induced hyperresponsive model assessed as decrease in nitrate/nitrite level in BAL at 20 mg/kg, ip qd administered for 7 days challenged 30 min post last dose on day 7 by griess assay (reference value: 70.16 +/- 6.20 umol/ml); type: functional; conditions: route intraperitoneal
[9] = system: Cavia porcellus; test: Antiasthmatic activity in Cavia porcellus Hartley (guinea pig) ovalbumin-induced hyperresponsive model assessed as increase in GSH level in BAL at 20 mg/kg, ip qd administered for 7 days challenged 30 min post last dose on day 7 (reference value: 28.95 +/- 3.66 umol/ml); type: functional; conditions: route intraperitoneal
[10] = system: Cavia porcellus; test: Antiasthmatic activity in Cavia porcellus Hartley (guinea pig) ovalbumin-induced hyperresponsive model assessed as cough latency at 10 mg/kg, ip qd administered for 7 days challenged 30 min post last dose on day 7 (reference value: 4.75 +/- 0.86 min); type: functional; conditions: route intraperitoneal
[11] = system: Bronchus smooth muscle; test: Inhibition of ovalbumin-induced constriction of Cavia porcellus (guinea pig) bronchial smooth muscle; type: functional
[12] = system: Cavia porcellus; test: Antiasthmatic activity in Cavia porcellus Hartley (guinea pig) ovalbumin-induced hyperresponsive model assessed as reduction in total lymphocyte count in BAL at 50 mg/kg, ip qd administered for 7 days challenged 30 min post last dose on day 7; type: functional, organism-based; parameters: dose 50 mg/kg
[13] = system: Cavia porcellus; test: Antiasthmatic activity in Cavia porcellus Hartley (guinea pig) ovalbumin-induced hyperresponsive model assessed as cough latency at 50 mg/kg, ip qd administered for 7 days challenged 30 min post last dose on day 7 (reference value: 4.75 +/- 0.86 min); type: functional; conditions: route intraperitoneal
[14] = system: Cavia porcellus; test: Antiasthmatic activity in Cavia porcellus Hartley (guinea pig) ovalbumin-induced hyperresponsive model assessed as increase in GSH level in per gram of lung tissue at 100 mg/kg, ip qd administered for 7 days challenged 30 min post last dose on day 7 (reference value: 15.175 +/- 1.809 umol/g); type: functional; conditions: route intraperitoneal
[15] = system: Cavia porcellus; test: Antiasthmatic activity in Cavia porcellus Hartley (guinea pig) ovalbumin-induced hyperresponsive model assessed as reduction in eosinophil count in BAL at 100 mg/kg, ip qd administered for 7 days challenged 30 min post last dose on day 7; type: functional, organism-based; parameters: dose 100 mg/kg
[16] = system: Cavia porcellus; test: Antiasthmatic activity in Cavia porcellus Hartley (guinea pig) ovalbumin-induced hyperresponsive model assessed as cough latency at 100 mg/kg, ip qd administered for 7 days challenged 30 min post last dose on day 7 (reference value: 4.75 +/- 0.86 min); type: functional; conditions: route intraperitoneal
[17] = system: Cavia porcellus; test: as §1, with “100” for “20”; type: functional; conditions: route intraperitoneal
[18] = system: Cavia porcellus; test: Antiasthmatic activity in Cavia porcellus Hartley (guinea pig) ovalbumin-induced hyperresponsive model assessed as reduction in eosinophil count in BAL at 50 mg/kg, ip qd administered for 7 days challenged 30 min post last dose on day 7; type: functional, organism-based; parameters: dose 50 mg/kg
[19] = system: Cavia porcellus; test: Antiasthmatic activity in Cavia porcellus Hartley (guinea pig) ovalbumin-induced hyperresponsive model assessed as reduction in TBARS level in per gram of lung tissue at 100 mg/kg, ip qd administered for 7 days challenged 30 min post last dose on day 7 (reference value: 0.291 +/- 0.039 nmol/g); type: functional; conditions: route intraperitoneal
[20] = system: Cavia porcellus; test: Antiasthmatic activity in Cavia porcellus Hartley (guinea pig) ovalbumin-induced hyperresponsive model assessed as reduction in total lymphocyte count in BAL at 100 mg/kg, ip qd administered for 7 days challenged 30 min post last dose on day 7; type: functional, organism-based; parameters: dose 100 mg/kg
[21] = system: Cavia porcellus; test: Antiasthmatic activity in Cavia porcellus Hartley (guinea pig) ovalbumin-induced hyperresponsive model assessed as decrease in nitrate/nitrite level in BAL at 100 mg/kg, ip qd administered for 7 days challenged 30 min post last dose on day 7 by griess assay (reference value: 70.16 +/- 6.20 umol/ml); type: functional; conditions: route intraperitoneal
[22] = system: Cavia porcellus; test: Antiasthmatic activity in Cavia porcellus Hartley (guinea pig) ovalbumin-induced hyperresponsive model assessed as increase in GSH level in BAL at 100 mg/kg, ip qd administered for 7 days challenged 30 min post last dose on day 7 (reference value: 28.95 +/- 3.66 umol/ml); type: functional; conditions: route intraperitoneal
[23] = system: Cavia porcellus; test: Antiasthmatic activity in Cavia porcellus Hartley (guinea pig) ovalbumin-induced hyperresponsive model assessed as reduction in TBARS level in BAL at 100 mg/kg, ip qd administered for 7 days challenged 30 min post last dose on day 7 (reference value: 0.471 +/- 0.08 nmol/ml); type: functional; conditions: route intraperitoneal

In the case of `O=c1c2ccccc2nc2n1CCCCC2`, the Time [1] was 22.32 min, the Activity [2] was 66.67 µmol and the Activity [3] was “Active”. For the same molecule, the Activity [4] was “Active”, the Activity [5] was 0.094 nmol and the Activity [6] was 81.777 µmol. The Activity [7] was 0.199 nmol/mL, the Activity [8] was 48.945 µmol/mL and the Activity [9] was 71.67 µmol/mL. For the same molecule, the Time [10] was 15.67 min and the inhibition [11] was “Dose-dependent effect”.

`Nc1c(Br)cc(Br)cc1CN[C@H]1CC[C@H](O)CC1` [AMBROXOL] was tested, and the Activity [12] was “Active”, the Time [13] was 5.627 min and the Activity [14] was 50.28 µmol. The Activity [15] was “Active”, the Time [16] was 13.17 min and the Activity [17] was 134.67 µmol. For the same molecule, the Activity [18] was “Active”, the Activity [19] was 0.146 nmol and the Activity [20] was “Active”. It also gave an Activity [21] of 49.075 µmol/mL, an Activity [22] of 56.83 µmol/mL and an Activity [23] of 0.325 nmol/mL.
